From US7683024B2, “Polyaminoacids functionalized by alpha tocopherol and uses thereof, particular for therapeutic applications” (Flamel Technologies, priority 2002, dated 2010)

Assay: Comparative analysis of solutions at 15 mg/ml in water at pH 7.4 (phosphate buffer)
Assay type: physicochemical

Appearance of solution: milky solution
Compound: Cc1c(C)c2c(c(C)c1OC(=O)CCC(=O)O)CC[C@@](C)(CCC[C@H](C)CCC[C@H](C)CCCC(C)C)O2 [α-tocopherol succinate]
